Species on record: Rattus norvegicus
Assay: Open TG-GATES - Regimen: Single
Type: toxicity, organism-based, Sprague-Dawley
Set-up: regimen Single, gender Male, age 6 weeks
Conditions: in vivo, ip, 0.3 mg/kg, route intraperitoneal injection, dose 300 ug/Kg, dose level Middle; for KIDNEY_L / KIDNEY_R / KIDNEY_TOTAL: tissue Kidney; for LIVER: tissue Liver; for ALP / ALT / AST / BUN / CRE / Ca / DBIL / GLC / IP / K / LDH / PL / RALB / TBIL / TC / TG / TP / gamma-GTP / Na: tissue Plasma

Substance: LPS
- APTT (3 h, tissue Blood): 22.5 s
- Bas (3 h, tissue Blood): 0%
- Eos (3 h, tissue Blood): 0.3%
- Fbg (3 h, tissue Blood): 152.7 mg/dL
- Hb (3 h, tissue Blood): 13.6 g/dL
- Lym (3 h, tissue Blood): 75%
- MCH (3 h, tissue Blood): 21.8 pg
- MCHC (3 h, tissue Blood): 32.9%
- Mono (3 h, tissue Blood): 0.7%
- Neu (3 h, tissue Blood): 24%
- PT (3 h, tissue Blood): 17.9 s
- Plat (3 h, tissue Blood): 65.5 x10_4/uL
- RBC (3 h, tissue Blood): 625.3 x10_4/ul
- Ret (3 h, tissue Blood): 9.1%
- WBC (3 h, tissue Blood): 24.9 x10_2/uL
- KIDNEY_L (3 h): 1 g
- KIDNEY_R (3 h): 1 g
- KIDNEY_TOTAL (3 h): 2 g
- LIVER (3 h): 8.6 g
- ALP (3 h): 1337.3 IU/L
- ALT (3 h): 67.3 IU/L
- AST (3 h): 171 IU/L
- BUN (3 h): 12.7 mg/dL
- CRE (3 h): 0.2 mg/dL
- Ca (3 h): 9.7 mg/dL
- DBIL (3 h): 0.0533 mg/dL
- GLC (3 h): 138.7 mg/dL
- IP (3 h): 9.3 mg/dL
- K (3 h): 3.9 meq/L
- LDH (3 h): 487.3 IU/L
- PL (3 h): 134 mg/dL
- RALB (3 h): 2.2 g/dL
- TBIL (3 h): 0.2 mg/dL
- TC (3 h): 68.3 mg/dL
- TG (3 h): 96 mg/dL
- TP (3 h): 5 g/dL
- gamma-GTP (3 h): 1 IU/L
- TERMINAL_BW (6 h): 193.4 g
- APTT (6 h, tissue Blood): 28.2 s
- Bas (6 h, tissue Blood): 0%
- Eos (6 h, tissue Blood): 1%
- Fbg (6 h, tissue Blood): 185.7 mg/dL
- Hb (6 h, tissue Blood): 13.6 g/dL
- Ht (6 h, tissue Blood): 40.7%
- Lym (6 h, tissue Blood): 56%
- MCHC (6 h, tissue Blood): 33.3%
- MCV (6 h, tissue Blood): 64.7 fL
- Mono (6 h, tissue Blood): 1%
- Neu (6 h, tissue Blood): 41.3%
- PT (6 h, tissue Blood): 17.8 s
- Plat (6 h, tissue Blood): 56 x10_4/uL
- RBC (6 h, tissue Blood): 629.3 x10_4/ul
- Ret (6 h, tissue Blood): 9.3%
- WBC (6 h, tissue Blood): 34.8 x10_2/uL
- KIDNEY_L (6 h): 0.9 g
- KIDNEY_R (6 h): 0.9 g
- KIDNEY_TOTAL (6 h): 1.9 g
- LIVER (6 h): 8 g
- ALP (6 h): 1219 IU/L
- ALT (6 h): 143.7 IU/L
- AST (6 h): 272 IU/L
- BUN (6 h): 18.3 mg/dL
- CRE (6 h): 0.2 mg/dL
- Ca (6 h): 9.7 mg/dL
- DBIL (6 h): 0.1 mg/dL
- GLC (6 h): 140 mg/dL
- IP (6 h): 9.9 mg/dL
- K (6 h): 4 meq/L
- LDH (6 h): 1262.7 IU/L
- Na (6 h): 139.7 meq/L
- PL (6 h): 163.3 mg/dL
- RALB (6 h): 2.2 g/dL
- TBIL (6 h): 0.4 mg/dL
- TC (6 h): 103.7 mg/dL
- TG (6 h): 65.3 mg/dL
- TP (6 h): 5 g/dL
- gamma-GTP (6 h): 2.3 IU/L
- TERMINAL_BW (9 h): 188.8 g
- APTT (9 h, tissue Blood): 22.1 s
- Bas (9 h, tissue Blood): 0%
- Eos (9 h, tissue Blood): 1%
- Fbg (9 h, tissue Blood): 248.7 mg/dL
- Hb (9 h, tissue Blood): 13.8 g/dL
- Lym (9 h, tissue Blood): 51.3%
- MCV (9 h, tissue Blood): 64.7 fL
- Mono (9 h, tissue Blood): 1%
- Neu (9 h, tissue Blood): 46.7%
- Plat (9 h, tissue Blood): 59.9 x10_4/uL
- RBC (9 h, tissue Blood): 643.7 x10_4/ul
- Ret (9 h, tissue Blood): 8.7%
- WBC (9 h, tissue Blood): 71 x10_2/uL
- KIDNEY_L (9 h): 0.9 g
- KIDNEY_R (9 h): 0.9 g
- KIDNEY_TOTAL (9 h): 1.9 g
- LIVER (9 h): 7.2 g
- ALP (9 h): 1291 IU/L
- ALT (9 h): 126.3 IU/L
- AST (9 h): 246.7 IU/L
- BUN (9 h): 16.3 mg/dL
- CRE (9 h): 0.2 mg/dL
- Ca (9 h): 10 mg/dL
- DBIL (9 h): 0.0533 mg/dL
- GLC (9 h): 139.3 mg/dL
- IP (9 h): 9.6 mg/dL
- K (9 h): 4.1 meq/L
- LDH (9 h): 1570.3 IU/L
- Na (9 h): 140.3 meq/L
- PL (9 h): 166.3 mg/dL
- RALB (9 h): 2.4 g/dL
- TBIL (9 h): 0.2 mg/dL
- TC (9 h): 119 mg/dL
- TG (9 h): 38 mg/dL
- TP (9 h): 5.4 g/dL
- gamma-GTP (9 h): 4.3 IU/L
- TERMINAL_BW (24 h): 189.4 g
- APTT (24 h, tissue Blood): 19.4 s
- Bas (24 h, tissue Blood): 0%
- Eos (24 h, tissue Blood): 1%
- Fbg (24 h, tissue Blood): 519 mg/dL
- Hb (24 h, tissue Blood): 13.6 g/dL
- Lym (24 h, tissue Blood): 61.7%
- MCH (24 h, tissue Blood): 20.6 pg
- MCHC (24 h, tissue Blood): 32.9%
- Mono (24 h, tissue Blood): 2.7%
- Neu (24 h, tissue Blood): 33.3%
- PT (24 h, tissue Blood): 14.6 s
- Plat (24 h, tissue Blood): 53.7 x10_4/uL
- RBC (24 h, tissue Blood): 660.3 x10_4/ul
- Ret (24 h, tissue Blood): 6.6%
- WBC (24 h, tissue Blood): 82.4 x10_2/uL
- KIDNEY_L (24 h): 0.9 g
- KIDNEY_R (24 h): 0.9 g
- KIDNEY_TOTAL (24 h): 1.8 g
- LIVER (24 h): 9.2 g
- ALP (24 h): 1258 IU/L
- ALT (24 h): 36.7 IU/L
- AST (24 h): 71 IU/L
- BUN (24 h): 18.3 mg/dL
- CRE (24 h): 0.2 mg/dL
- DBIL (24 h): 0.01 mg/dL
- GLC (24 h): 181.3 mg/dL
- IP (24 h): 9.2 mg/dL
- K (24 h): 4.7 meq/L
- LDH (24 h): 64 IU/L
- PL (24 h): 176 mg/dL
- RALB (24 h): 2.7 g/dL
- TBIL (24 h): 0.07 mg/dL
- TC (24 h): 107 mg/dL
- TG (24 h): 47.7 mg/dL

— ChEMBL document CHEMBL3885861, “Open TG-GATES”
